Assay results published in patent US20240358692A1, “TREATMENT OF SCLERODERMA” (Aisa Pharma, Inc., priority 2023, published 2024).

Legend:
participants with SSc-RP [1] = assay: SHAQ - Alternative Disability Index; type: in vivo, human; conditions: for alternative disability index, In Clinic Visit (Day 12), Mean / alternative disability index, In Clinic Visit (Day 12), Median: Modified ITT Population-Part A, tadalafil 5 mg, alone or combined as labelled
From the text: The SHAQ is used to calculate a Disability Index to assess the participant qualify of life. The eight categories assessed by the Disability Index are 1) dressing and grooming, 2) arising, 3) eating, 4) walking, 5) hygiene, 6) reach, 7) grip, and 8) common daily activities. For each of these categories, patients report the amount of difficulty they have in performing two or three specific activities.
There are four possible responses for the Disability Index questions: • Without any difficulty=0 • With some difficulty=1 • With much difficulty=2 • Unable to do=3 • The highest score reported by the patient for any component question of the eight categories determines the score for that category. • If a component question is left blank or the response is too ambiguous to assign a score, then the score for that category is determined by the remaining completed question(s). • If all component questions are blank or if more than one answer is given, then follow up with the respondent is required. • If the respondent's mark is between the response columns, then move it to the closest one. If it's directly between the two, move it to the higher one.
The aid and device variables are not used to calculate the alternative disability index; it is calculated by adding the scores for each of the categories and dividing by the number of categories answered. This gives a score in the 0 to 3 range.

participants with SSc-RP [2] = assay: Average duration of weekly RP attacks (minutes), patient diary; type: in vivo, human
From the text: The absolute change in average duration of weekly RP attacks from baseline to the end of each dosing period was and will be a secondary outcome variable. The sponsor-developed participant-informed diary was and will be used to record data. Average duration of weekly RP attacks is defined as the total duration of RP attacks divided by total number of RP attacks within the last 7 days of each dosing period. Total duration of RP attacks during the last 7 days of screening period divided by the total number of RP attacks will be used as baseline for the analysis of all periods. The variable will be calculated similar to frequency data as before.

[3] = Pooled Cilnidipine 10 mg and Cilnidipine 10 mg + Tadalafil 5 mg (N = 9), Day 12, PP Population, Part A
[4] = Pooled Cilnidipine (N = 8), Day 12, PP Population, Part A
[5] = Cilnidipine 10 mg, Excluding Outliers, ITT Population - Part A
[6] = Cilnidipine 10 mg, Excluding Outliers, by Baseline RCS, first RCS subgroup of table (not named), ITT Population - Part A
[7] = Cilnidipine 10 mg, by Baseline RCS, first RCS subgroup of table (not named), ITT Population - Part A
[8] = Cilnidipine 10 mg, by Baseline RCS, first subgroup of table, ITT Population - Part A
[9] = Cilnidipine 20 mg, Excluding Outliers, ITT Population - Part A

COCCOC(=O)C1=C(C)NC(C)=C(C(=O)OC/C=C/c2ccccc2)C1c1cccc([N+](=O)[O-])c1 (stereo not drawn) [Cilnidipine]
alternative disability index, In Clinic Visit (Day 12), Mean (participants with SSc-RP [1]; dose cilnidipine 10 mg): 0.563 | alternative disability index, In Clinic Visit (Day 12), Median (participants with SSc-RP [1]; dose cilnidipine 10 mg): 0.500 | alternative disability index, In Clinic Visit (Day 12), Mean (participants with SSc-RP [1]; dose cilnidipine 20 mg): 0.125 | alternative disability index, In Clinic Visit (Day 12), Median (participants with SSc-RP [1]; dose cilnidipine 20 mg): 0.125 | SHAQ Alternative Disability Index, Change from Baseline, Mean (participants with SSc-RP [1]; [3]): 0.021 | SHAQ Alternative Disability Index, Percent Change from Baseline, Median (participants with SSc-RP [1]; [3]): −10.00% | SHAQ Alternative Disability Index, Change from Baseline, Mean (participants with SSc-RP [1]; Pooled Cilnidipine 20 mg and Cilnidipine 20 mg + Tadalafil 5 mg (N = 8), Day 12, PP Population, Part A): −0.036 | SHAQ Alternative Disability Index, Change from Baseline, Mean (participants with SSc-RP [1]; [4]): 0.031 | SHAQ Alternative Disability Index, Change from Baseline, Mean (SD) (participants with SSc-RP [1]; [4]): 0.031 (0.1860) | SHAQ Alternative Disability Index, In-Clinic Visit (Day 12), Mean (SD) (participants with SSc-RP [1]; [4]): 0.391 (0.4884) | SHAQ Alternative Disability Index, Percent Change from Baseline, Mean (SD) (participants with SSc-RP [1]; [4]): 9.68 (61.446) % | SHAQ Alternative Disability Index, Percent Change from Baseline, Median (participants with SSc-RP [1]; [4]): −11.11% | % change in Alternative Disability Index (participants with SSc-RP [1]; Pooled Cilnidipine (n = 7), SHAQ, mITT Part A): −13% | % Δ from baseline, alternative disability mean (participants with SSc-RP [1]; Pooled cilnidipine (n=4)): −12.9% | Average Duration of Weekly RP Attacks (All Attacks), Change from Baseline, Mean (participants with SSc-RP [2]; [5]): -8.48 min | Average Duration of Weekly RP Attacks (All Attacks), Percent Change from Baseline, Mean (participants with SSc-RP [2]; [5]): −21.20% | Average Duration of weekly symptomatic RP attacks, Mean (participants with SSc-RP [2]; [5]): 31.64 min | Average Duration of weekly symptomatic RP attacks, Median (participants with SSc-RP [2]; [5]): 31.64 min | Percent Change from Baseline in average duration of weekly symptomatic RP attacks, Median (participants with SSc-RP [2]; [5]): −34.60% | Average Duration of weekly symptomatic RP attacks, Mean (participants with SSc-RP [2]; [6]): 31.64 min | Average Duration of weekly symptomatic RP attacks, Median (participants with SSc-RP [2]; [6]): 31.64 min | Change from Baseline in average duration of weekly symptomatic RP attacks, Mean (participants with SSc-RP [2]; [6]): -16.74 min | Change from Baseline in average duration of weekly symptomatic RP attacks, Median (participants with SSc-RP [2]; [6]): -16.74 min | Percent Change from Baseline in average duration of weekly symptomatic RP attacks, Mean (participants with SSc-RP [2]; [6]): −34.60% | Percent Change from Baseline in average duration of weekly symptomatic RP attacks, Median (participants with SSc-RP [2]; [6]): −34.60% | Average Duration of Weekly Symptomatic RP Attacks Change from Baseline, Mean (participants with SSc-RP [2]; Cilnidipine 10 mg, ITT Part A): -16.74 min | Average Duration of Weekly Symptomatic RP Attacks Change from Baseline, Median (participants with SSc-RP [2]; Cilnidipine 10 mg, ITT Part A): -16.74 min | Average Duration of Weekly Symptomatic RP Attacks Percent Change from Baseline, Mean (participants with SSc-RP [2]; Cilnidipine 10 mg, ITT Part A): −34.60% | Average Duration of Weekly Symptomatic RP Attacks Percent Change from Baseline, Median (participants with SSc-RP [2]; Cilnidipine 10 mg, ITT Part A): −34.60% | Average Duration of weekly symptomatic RP attacks, Mean (participants with SSc-RP [2]; [7]): 31.64 min | Average Duration of weekly symptomatic RP attacks, Median (participants with SSc-RP [2]; [7]): 31.64 min | Change from Baseline in average duration of weekly symptomatic RP attacks, Mean (participants with SSc-RP [2]; [7]): -16.74 min | Change from Baseline in average duration of weekly symptomatic RP attacks, Median (participants with SSc-RP [2]; [7]): -16.74 min | Percent Change from Baseline in average duration of weekly symptomatic RP attacks, Mean (participants with SSc-RP [2]; [7]): −34.60% | Percent Change from Baseline in average duration of weekly symptomatic RP attacks, Median (participants with SSc-RP [2]; [7]): −34.60% | Average Duration of Weekly RP Attacks (All Attacks), Mean (participants with SSc-RP [2]; [8]): 31.52 min | Average Duration of Weekly RP Attacks (All Attacks), Median (participants with SSc-RP [2]; [8]): 31.52 min | Average Duration of weekly symptomatic RP attacks, Mean (participants with SSc-RP [2]; Cilnidipine 10 mg, last 7 days of dosing period, ITT Part A): 31.64 min | Duration (change) (participants with SSc-RP [2]; Cilnidipine 20 mg (n = 3)): −20% | Average Duration of Weekly RP Attacks (All Attacks), Change from Baseline, Mean (participants with SSc-RP [2]; [9]): -1.09 min | Average Duration of Weekly RP Attacks (All Attacks), Change from Baseline, Median (participants with SSc-RP [2]; [9]): -1.09 min | Average Duration of Weekly RP Attacks (All Attacks), Percent Change from Baseline, Mean (participants with SSc-RP [2]; [9]): −24.97% | Average Duration of Weekly RP Attacks (All Attacks), Percent Change from Baseline, Median (participants with SSc-RP [2]; [9]): −24.97% | Average Duration of weekly symptomatic RP attacks, Mean (participants with SSc-RP [2]; [9]): 16.73 min | Average Duration of weekly symptomatic RP attacks, Median (participants with SSc-RP [2]; [9]): 16.73 min | Change from Baseline in average duration of weekly symptomatic RP attacks, Mean (participants with SSc-RP [2]; [9]): -3.13 min | Change from Baseline in average duration of weekly symptomatic RP attacks, Median (participants with SSc-RP [2]; [9]): -3.13 min | Percent Change from Baseline in average duration of weekly symptomatic RP attacks, Mean (participants with SSc-RP [2]; [9]): −31.05%
